According to PubChem BioAssay (NCI):
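Growth conditions: 96-well plates. Treatment: test compound, 48 hours, 5 concentrations. Analysis: linear interpolation between bracketing concentrations; unreached endpoints set to highest concentration. At the GI50, growth is halved. TGI marks complete inhibition of growth.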

How the values were obtained:
Assay in all cases: NCI anticancer screen, dose series, 48 h
[1] = system: HOP-92 NSCLC
[2] = system: HCT-116 colon
[3] = system: IGROV1 ovarian
[4] = system: OVCAR-4 ovarian
[5] = system: SF-539 CNS
[6] = system: CAKI-1 renal
[7] = system: SK-MEL-28 melanoma
[8] = system: SK-MEL-2 melanoma
[9] = system: HS 578T breast
[10] = system: NCI-H522 lung
[11] = system: SF-268 CNS
[12] = system: ACHN renal
[13] = system: DU-145 prostate
[14] = system: U251 CNS
[15] = system: LOX IMVI melanoma
[16] = system: MCF7 breast
[17] = system: COLO 205 colon
[18] = system: NCI-H460 lung
[19] = system: TK-10 renal
[20] = system: HT29 colon
[21] = system: PC-3 prostate
[22] = system: OVCAR-8 ovarian
[23] = system: M14 melanoma
[24] = system: KM12 colon
[25] = system: UO-31 renal
[26] = system: HOP-62 NSCLC
[27] = system: MALME-3M melanoma
[28] = system: HCC-2998 colon
[29] = system: HL-60(TB) leukemia
[30] = system: RPMI-8226 leukemia
[31] = system: NCI/ADR-RES ovarian
[32] = system: SN12C renal
[33] = system: SK-MEL-5 melanoma
[34] = system: 786-0 renal
[35] = system: HCT-15 colon
[36] = system: CCRF-CEM leukemia
[37] = system: UACC-62 melanoma
[38] = system: OVCAR-5 ovarian
[39] = system: MDA-MB-231 breast
[40] = system: MOLT-4 leukemia
[41] = system: SR leukemia
[42] = system: T-47D breast
[43] = system: OVCAR-3 ovarian
[44] = system: NCI-H226 lung
[45] = system: EKVX NSCLC
[46] = system: A549 NSCLC
[47] = system: UACC-257 melanoma
[48] = system: MDA-MB-435
[49] = system: NCI-H23 lung
[50] = system: SW-620 colon
[51] = system: SF-295 CNS
[52] = system: SK-OV-3 ovarian
[53] = system: BT-549 breast
[54] = system: SNB-75 CNS
[55] = system: SNB-19 CNS
[56] = system: A498 renal
[57] = system: RXF 393 renal
[58] = system: K-562 leukemia

O=c1n(-c2ccccc2)c(=O)n2n1C1C=CC2CCCCCC1
TGI [1]: > 100 µM
TGI [2]: > 100 µM
TGI [3]: > 100 µM
TGI [4]: > 100 µM
TGI [5]: > 100 µM
TGI [6]: > 100 µM
TGI [7]: > 100 µM
TGI [8]: > 100 µM
TGI [9]: > 100 µM
TGI [10]: > 100 µM
TGI [11]: > 100 µM
TGI [12]: > 100 µM
TGI [13]: > 100 µM
TGI [14]: > 100 µM
TGI [15]: > 100 µM
TGI [16]: > 100 µM
TGI [17]: > 100 µM
TGI [18]: > 100 µM
TGI [19]: > 100 µM
TGI [20]: > 100 µM
TGI [21]: > 100 µM
TGI [22]: > 100 µM
TGI [23]: > 100 µM
TGI [24]: > 100 µM
TGI [25]: > 100 µM
TGI [26]: > 100 µM
TGI [27]: > 100 µM
TGI [28]: > 100 µM
TGI [29]: > 100 µM
TGI [30]: > 100 µM
TGI [31]: > 100 µM
TGI [32]: > 100 µM
TGI [33]: > 100 µM
TGI [34]: > 100 µM
TGI [35]: > 100 µM
TGI [36]: > 100 µM
TGI [37]: > 100 µM
TGI [38]: > 100 µM
TGI [39]: > 100 µM
TGI [40]: > 100 µM
TGI [41]: > 100 µM
TGI [42]: > 100 µM
TGI [43]: > 100 µM
TGI [44]: > 100 µM
TGI [45]: > 100 µM
TGI [46]: > 100 µM
TGI [47]: > 100 µM
TGI [48]: > 100 µM
TGI [49]: > 100 µM
TGI [50]: > 100 µM
TGI [51]: > 100 µM
TGI [52]: > 100 µM
TGI [53]: > 100 µM
TGI [54]: > 100 µM
TGI [55]: > 100 µM

COc1cc(OC)cc(C2C(C#N)=C(N)Oc3c2ccc2ccc(O)cc32)c1 (stereo not given)
GI50 [1]: < 0.01 µM
TGI [1]: 2.95 µM
GI50 [2]: < 0.01 µM
TGI [2]: 3.88 µM
GI50 [3]: < 0.01 µM
TGI [3]: 6.61 µM
TGI [4]: 15.6 µM
GI50 [5]: < 0.01 µM
TGI [5]: < 0.01 µM
GI50 [6]: < 0.01 µM
TGI [6]: 6.08 µM
GI50 [7]: 2.27 µM
TGI [7]: 9.97 µM
GI50 [8]: 0.587 µM
TGI [8]: 7.37 µM
GI50 [9]: < 0.01 µM
TGI [9]: 9.95 µM
GI50 [10]: < 0.01 µM
GI50 [11]: < 0.01 µM
TGI [11]: 6.87 µM
GI50 [56]: < 0.01 µM
TGI [56]: 2.64 µM
GI50 [12]: < 0.01 µM
TGI [12]: 6.58 µM
GI50 [13]: < 0.01 µM
TGI [13]: 3.84 µM
GI50 [14]: < 0.01 µM
TGI [14]: 1.89 µM
GI50 [15]: < 0.01 µM
TGI [15]: 1.63 µM
GI50 [16]: < 0.01 µM
TGI [16]: 11.3 µM
GI50 [17]: 0.155 µM
TGI [17]: 1.03 µM
GI50 [18]: < 0.01 µM
TGI [18]: 1.13 µM
GI50 [57]: < 0.01 µM
TGI [57]: 4.49 µM
GI50 [19]: 3.36 µM
TGI [19]: 19.6 µM
GI50 [20]: 0.088 µM
TGI [20]: 5.83 µM
GI50 [21]: < 0.01 µM
TGI [21]: 13.9 µM
GI50 [22]: < 0.01 µM
TGI [22]: 8.29 µM
GI50 [23]: < 0.01 µM
TGI [23]: 5.25 µM
GI50 [24]: < 0.01 µM
TGI [24]: 1.34 µM
GI50 [25]: < 0.0112 µM
TGI [25]: 6.62 µM
GI50 [26]: < 0.01 µM
TGI [26]: 5.75 µM
GI50 [28]: < 0.0166 µM
TGI [28]: 0.53 µM
GI50 [29]: < 0.01 µM
TGI [29]: < 0.01 µM
GI50 [58]: < 0.01 µM
TGI [58]: > 31.7 µM
GI50 [30]: < 0.01 µM
TGI [30]: 3.28 µM
GI50 [31]: < 0.01 µM
GI50 [32]: < 0.01 µM
TGI [32]: 5.89 µM
GI50 [33]: < 0.01 µM
TGI [33]: < 0.01 µM
GI50 [34]: < 0.0125 µM
TGI [34]: 9.23 µM
GI50 [35]: < 0.01 µM
TGI [35]: 1.93 µM
GI50 [36]: < 0.01 µM
TGI [36]: 14 µM
GI50 [37]: 1.41 µM
TGI [37]: 4.42 µM
GI50 [38]: 0.0521 µM
TGI [38]: 12 µM
GI50 [39]: < 0.01 µM
TGI [39]: 5.14 µM
GI50 [40]: < 0.01 µM
TGI [40]: 12.8 µM
GI50 [41]: < 0.01 µM
TGI [41]: 27.1 µM
GI50 [42]: 2.29 µM
TGI [42]: 22.8 µM
GI50 [43]: < 0.01 µM
TGI [43]: < 0.01 µM
GI50 [44]: < 0.01 µM
GI50 [45]: < 0.01 µM
TGI [45]: 6.66 µM
GI50 [46]: < 0.01 µM
TGI [46]: 9.97 µM
GI50 [47]: 2.38 µM
TGI [47]: 32.5 µM
GI50 [48]: < 0.01 µM
TGI [48]: < 0.01 µM
GI50 [49]: < 0.01 µM
TGI [49]: 4.74 µM
GI50 [50]: < 0.01 µM
TGI [50]: 14.4 µM
GI50 [51]: < 0.01 µM
TGI [51]: 2.67 µM
GI50 [52]: < 0.01 µM
TGI [52]: 11.4 µM
GI50 [53]: < 0.01 µM
TGI [53]: 11.5 µM
GI50 [54]: < 0.01 µM
TGI [54]: 6.54 µM
GI50 [55]: < 0.01 µM
TGI [55]: 11.6 µM
